Source: patent publication US20020061325A1, “Container for 4-allylanisole and analog scolytid pesticides” (priority 1993, published 2002)

Key:
southern pine beetle [1] = test: Laboratory assay for effectiveness of repellent (circle of compound on cardboard, beetle response); assay type: in vivo; parameters: BEHAVIORAL RATING: scale not given here; conditions: for BEHAVIORAL RATING: numerical score for degree of behavioral response; for repelled behavioral response (in words): laboratory tests
Description: A) Laboratory Assay for Effectiveness of Repellent
The candidate compound was applied as a circle (17 cm in diameter by 5 mm in width) to a 28 by 21.5 cm piece of uncoated cardboard using a camel-hair brush. Three minutes after application, a beetle was placed in the center of the circle. In each trial, at least 20 healthy-appearing beetles were tested. Testing was conducted at room temperature (22°-25° C.) with light supplied from an adjoining room. The beetles were briefly refrigerated prior to testing to reduce their tendency to fly immediately upon release. An object was used to cast a shadow over the test circle in order to minimize response to light, which could interfere with the interpretation of insect response to an applied substance.

southern pine beetle [2] = test: Field assay with frontalure-baited Lindgren funnel traps; assay type: in vivo; conditions: for rank (relative repellency, 1 = best repellent): frontalure plus test compound; for mean rank: mean over the trials in which the compound was tested; for rank in reduction of trap captures: the two field trials in which they were tested, relative to 4-allylanisole
Description: B) Field Assays of the Effectiveness of Repellents
Field assays were carried out with selected 4-allylanisole analogs, including 4-allylanisole, anisole, 4-isopropylanisole, allylbenzene, 4-methylstyrene, toluene, and trans-anethole. The protocol for these assays is similar to that previously described (Hayes, et al., 1994a; Hayes and Strom, 1994c, both incorporated by reference as if fully set forth herein). Populations of local southern pine beetle were tested for response to these compounds using baited Lindgren funnel (16-funnel) traps. Traps were placed in or near active infestations of southern pine beetle over the course of the summer of 1997. Treatment baits consisted of the attractant frontalure and frontalure plus the test compound released from a 4-ml Samco pipette bulb. Hayes, et al., (J. Vozzo [ed.] Research and applications of chemical sciences in forestry: Proceeding of the 4th Southern Station Chemical Sciences Meeting, GTR-SO-104:69-80, 1994). Frontalure is a combination of frontalin, which is an aggregation pheromone of the southern pine beetle, and a-pinene, a synergistic host oleoresin compound. In most cases, each trap array consisted of a total of six traps: one frontalure-only treatment; one frontalure plus 4-allylanisole treatment, and four traps containing treatments of frontalure plus a 4-allylanisole analog. In one instance a 12-trap array was employed, the array having two traps per treatment.
(§1) Release rates were determined in preliminary studies using simple gravimetric measurement of bulbs to provide elution in mg/day units. Release rates of all analog compounds were equal to or greater than that of 4-allylanisole. Placement of treatments was originally assigned at random and rotated sequentially with each collection. Each array was collected through two full rotations. Whole traps were moved in order to eliminate the possibility of contamination. Collection cups contained a 5.5×2 cm piece of pest strip, containing as its active ingredient the insecticidal agent 2,2 dichlorovinyldimethylphosphate to kill the captured insects. The numbers of captured southern pine beetle and of predatory clerid beetle Thanasimus dubius, the most important natural enemy of the southern pine beetle, were determined. Data were analyzed using ANOVA (SAS PROC GLM) to determine if the mean numbers of southern pine beetles or clerids were affected by treatment. The positions of the traps were also taken into consideration in the model.

[3] = Release rate by gravimetric measurement of pipette bulbs; assay type: physicochemical; conditions: elution from 4-ml Samco pipette bulb, preliminary studies
Description: as §1

[4] = 30-second exposure, 3 min after application, at least 20 beetles per trial, 22-25 C
[5] = compounds marked * : originally tested with sample size of 45-53 beetles, published in Hayes et al. 1994

CCOc1ccccc1OC [2-ethoxyanisole]
% REPELLED (southern pine beetle [1]; [4]): 40%
BEHAVIORAL RATING (southern pine beetle [1]; 30-second exposure): 2

CCc1ccccc1O [2-ethylphenol]
% REPELLED (southern pine beetle [1]; [4]): 50%
BEHAVIORAL RATING (southern pine beetle [1]; 30-second exposure): 2

COCC(=O)c1ccccc1 [2-methoxyacetophenone]
% REPELLED (southern pine beetle [1]; [4]): 8%
BEHAVIORAL RATING (southern pine beetle [1]; 30-second exposure): 2

COc1ccccc1CO [2-methoxybenzyl alcohol]
% REPELLED (southern pine beetle [1]; [4]): 0%
BEHAVIORAL RATING (southern pine beetle [1]; 30-second exposure): 1

COc1ccccc1C [2-methylanisole]
% REPELLED (southern pine beetle [1]; [4]): 35%
BEHAVIORAL RATING (southern pine beetle [1]; 30-second exposure): 1

CCCc1ccccc1OC [2-propylanisole]
% REPELLED (southern pine beetle [1]; [4]): 8%
BEHAVIORAL RATING (southern pine beetle [1]; 30-second exposure): 2

CCCc1ccccc1O [2-propylphenol]
BEHAVIORAL RATING (southern pine beetle [1]; 30-second exposure): 2

COc1cccc(C(C)=O)c1 [3-methoxyacetophenone]
% REPELLED (southern pine beetle [1]; [4]): 8%
BEHAVIORAL RATING (southern pine beetle [1]; 30-second exposure): 2

COc1cccc(CO)c1 [3-methoxybenzyl alcohol]
% REPELLED (southern pine beetle [1]; [4]): 0%
BEHAVIORAL RATING (southern pine beetle [1]; 30-second exposure): 1

C=CCc1ccc(OC)cc1 [4-allylanisole]
rank (relative repellency, 1 = best repellent) (southern pine beetle [2]; TRIAL 1): 1
rank (relative repellency, 1 = best repellent) (southern pine beetle [2]; TRIAL 2): 1
rank (relative repellency, 1 = best repellent) (southern pine beetle [2]; TRIAL 3): 1
rank (relative repellency, 1 = best repellent) (southern pine beetle [2]; TRIAL 4): 1
rank (relative repellency, 1 = best repellent) (southern pine beetle [2]; TRIAL 5): 1
rank (relative repellency, 1 = best repellent) (southern pine beetle [2]; TRIAL 6): 1
beetles captured relative to other treatments (southern pine beetle [2]; all trials): fewest
mean rank (southern pine beetle [2]): 1.0
release rate [3]: 15.6 mg/day

COc1ccc(C(C)C)cc1 [4-isopropylanisole]
% REPELLED (southern pine beetle [1]; [5]): >90%
rank (relative repellency, 1 = best repellent) (southern pine beetle [2]; TRIAL 1): 4
rank (relative repellency, 1 = best repellent) (southern pine beetle [2]; TRIAL 2): 2
rank (relative repellency, 1 = best repellent) (southern pine beetle [2]; TRIAL 3): 2
rank (relative repellency, 1 = best repellent) (southern pine beetle [2]; TRIAL 4): 5
rank (relative repellency, 1 = best repellent) (southern pine beetle [2]; TRIAL 5): 3
rank (relative repellency, 1 = best repellent) (southern pine beetle [2]; TRIAL 6): 2
mean rank (southern pine beetle [2]): 3.5
release rate [3]: 16.45 mg/day

COc1ccc(C(C)=O)cc1 [4-methoxyacetophenone]
% REPELLED (southern pine beetle [1]; [4]): 96%
BEHAVIORAL RATING (southern pine beetle [1]; 30-second exposure): 3

COc1ccc(C=CC#N)cc1 [4-methoxycinnamonitrile]
% REPELLED (southern pine beetle [1]; [5]): <20%

COc1ccc(CC#N)cc1 [4-methoxypheylacetonitrile]
% REPELLED (southern pine beetle [1]; [5]): <30%

COc1ccc(C)cc1 [4-methylanisole]
% REPELLED (southern pine beetle [1]; [4]): 45%
BEHAVIORAL RATING (southern pine beetle [1]; 30-second exposure): 2

C=Cc1ccc(C)cc1 [4-methylstyrene]
repelled behavioral response (in words) (southern pine beetle [1]): modest repellent response
BEHAVIORAL RATING (southern pine beetle [1]; 30-second exposure): 2
rank (relative repellency, 1 = best repellent) (southern pine beetle [2]; TRIAL 3): 2
rank (relative repellency, 1 = best repellent) (southern pine beetle [2]; TRIAL 4): 3
mean rank (southern pine beetle [2]): 2.5
rank in reduction of trap captures (southern pine beetle [2]): second and third
release rate [3]: 674.75 mg/day

COc1ccc(C(C)(C)C)cc1 [4-tert-butylanisole]
% REPELLED (southern pine beetle [1]; [4]): 0%
BEHAVIORAL RATING (southern pine beetle [1]; 30-second exposure): 1

C=Cc1ccc(OC)cc1 [4-vinylanisole]
% REPELLED (southern pine beetle [1]; [4]): 24%
BEHAVIORAL RATING (southern pine beetle [1]; 30-second exposure): 2

C=CCc1ccccc1 [allylbenzene]
% REPELLED (southern pine beetle [1]; [5]): >90%
rank (relative repellency, 1 = best repellent) (southern pine beetle [2]; TRIAL 1): 5
rank (relative repellency, 1 = best repellent) (southern pine beetle [2]; TRIAL 2): 5
rank (relative repellency, 1 = best repellent) (southern pine beetle [2]; TRIAL 5): 2
rank (relative repellency, 1 = best repellent) (southern pine beetle [2]; TRIAL 6): 4
mean rank (southern pine beetle [2]): 4.0
release rate [3]: 128.2 mg/day

COc1ccccc1 [anisole]
% REPELLED (southern pine beetle [1]; [5]): >80%
rank (relative repellency, 1 = best repellent) (southern pine beetle [2]; TRIAL 1): 3
rank (relative repellency, 1 = best repellent) (southern pine beetle [2]; TRIAL 2): 4
rank (relative repellency, 1 = best repellent) (southern pine beetle [2]; TRIAL 3): 4
rank (relative repellency, 1 = best repellent) (southern pine beetle [2]; TRIAL 4): 2
rank (relative repellency, 1 = best repellent) (southern pine beetle [2]; TRIAL 5): 5
rank (relative repellency, 1 = best repellent) (southern pine beetle [2]; TRIAL 6): 3
mean rank (southern pine beetle [2]): 3.5
release rate [3]: 52.2 mg/day

CCCCc1ccccc1 [butylbenzene]
% REPELLED (southern pine beetle [1]; [4]): 39%
BEHAVIORAL RATING (southern pine beetle [1]; 30-second exposure): 2

CC(C)c1ccccc1 [cumene]
% REPELLED (southern pine beetle [1]; [4]): 55%
BEHAVIORAL RATING (southern pine beetle [1]; 30-second exposure): 3

CCc1ccccc1 [ethylbenzene]
% REPELLED (southern pine beetle [1]; [4]): 72%
BEHAVIORAL RATING (southern pine beetle [1]; 30-second exposure): 3

C=CCc1ccc(O)c(OC)c1 [eugenol]
% REPELLED (southern pine beetle [1]; [5]): <40%

Cc1cccc(C)c1 [m-xylene]
% REPELLED (southern pine beetle [1]; [4]): 34%
BEHAVIORAL RATING (southern pine beetle [1]; 30-second exposure): 2

Cc1ccccc1C [o-xylene]
% REPELLED (southern pine beetle [1]; [4]): 46%
BEHAVIORAL RATING (southern pine beetle [1]; 30-second exposure): 2

COc1ccc(C=O)cc1 [p-anisaldehyde]
% REPELLED (southern pine beetle [1]; [4]): 65%
BEHAVIORAL RATING (southern pine beetle [1]; 30-second exposure): 3

Cc1ccc(C(C)C)cc1 [p-cymene]
% REPELLED (southern pine beetle [1]; [4]): 28%
BEHAVIORAL RATING (southern pine beetle [1]; 30-second exposure): 2

Cc1ccc(C)cc1 [p-xylene]
% REPELLED (southern pine beetle [1]; [4]): 50%
BEHAVIORAL RATING (southern pine beetle [1]; 30-second exposure): 2

CCOc1ccccc1 [phenetole]
BEHAVIORAL RATING (southern pine beetle [1]; 30-second exposure): 2

CCCc1ccccc1 [propylbenzene]
% REPELLED (southern pine beetle [1]; [4]): 17%
BEHAVIORAL RATING (southern pine beetle [1]; 30-second exposure): 1

Cc1ccccc1 [toluene]
repelled behavioral response (in words) (southern pine beetle [1]): modest repellent response
BEHAVIORAL RATING (southern pine beetle [1]; 30-second exposure): 2
rank (relative repellency, 1 = best repellent) (southern pine beetle [2]; TRIAL 1): 2
rank (relative repellency, 1 = best repellent) (southern pine beetle [2]; TRIAL 2): 3
mean rank (southern pine beetle [2]): 2.5
rank in reduction of trap captures (southern pine beetle [2]): second and third
release rate [3]: 462.6 mg/day

C/C=C/c1ccc(OC)cc1 [trans-anethole]
% REPELLED (southern pine beetle [1]; [5]): <20%
rank (relative repellency, 1 = best repellent) (southern pine beetle [2]; TRIAL 3): 3
rank (relative repellency, 1 = best repellent) (southern pine beetle [2]; TRIAL 4): 4
rank (relative repellency, 1 = best repellent) (southern pine beetle [2]; TRIAL 5): 4
rank (relative repellency, 1 = best repellent) (southern pine beetle [2]; TRIAL 6): 6
mean rank (southern pine beetle [2]): 4.25
release rate [3]: 44.65 mg/day
